# PubChem BioAssay (NCI)
#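 GI50 is the concentration that inhibits growth by half. TGI denotes the concentration required for complete inhibition of growth.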
# Experiments:
# Assay in all cases: NCI-60 cell line screen, 384-well format
# RXF 393 renal = test system: RXF 393 renal
# TK-10 renal = test system: TK-10 renal
# 786-0 renal = test system: 786-0 renal
# SF-268 CNS = test system: SF-268 CNS
# HL-60(TB) leukemia = test system: HL-60(TB) leukemia
# SR leukemia = test system: SR leukemia
# SK-MEL-2 melanoma = test system: SK-MEL-2 melanoma
# COLO 205 colon = test system: COLO 205 colon
# IGROV1 ovarian = test system: IGROV1 ovarian
# ACHN renal = test system: ACHN renal
# SNB-19 CNS = test system: SNB-19 CNS
# NCI-H460 NSCLC = test system: NCI-H460 NSCLC
# SN12C renal = test system: SN12C renal
# SK-MEL-5 melanoma = test system: SK-MEL-5 melanoma
# HCT-15 colon = test system: HCT-15 colon
# KM12 colon = test system: KM12 colon
# HOP-92 NSCLC = test system: HOP-92 NSCLC
# MCF7 breast = test system: MCF7 breast
# HOP-62 NSCLC = test system: HOP-62 NSCLC
# OVCAR-5 ovarian = test system: OVCAR-5 ovarian
# SNB-75 CNS = test system: SNB-75 CNS
# A549 NSCLC = test system: A549 NSCLC
# CCRF-CEM leukemia = test system: CCRF-CEM leukemia
# MDA-MB-468 breast = test system: MDA-MB-468 breast
# EKVX NSCLC = test system: EKVX NSCLC
# HS 578T breast = test system: HS 578T breast
# NCI-H522 lung = test system: NCI-H522 lung
# HCC-2998 colon = test system: HCC-2998 colon
# PC-3 prostate = test system: PC-3 prostate
# SF-295 CNS = test system: SF-295 CNS
# HT29 colon = test system: HT29 colon
# A498 renal = test system: A498 renal
# DU-145 prostate = test system: DU-145 prostate
# MDA-MB-435 melanoma = test system: MDA-MB-435 melanoma
# CAKI-1 renal = test system: CAKI-1 renal
# M14 melanoma = test system: M14 melanoma
# MDA-MB-231 breast = test system: MDA-MB-231 breast
# NCI-H322M lung = test system: NCI-H322M lung
# MALME-3M melanoma = test system: MALME-3M melanoma
# OVCAR-8 ovarian = test system: OVCAR-8 ovarian
# NCI/ADR-RES ovarian = test system: NCI/ADR-RES ovarian
# RPMI-8226 leukemia = test system: RPMI-8226 leukemia
# NCI-H23 lung = test system: NCI-H23 lung
# U251 glioblastoma = test system: U251 glioblastoma
# BT-549 breast = test system: BT-549 breast
# SW-620 colon = test system: SW-620 colon
# UACC-257 melanoma = test system: UACC-257 melanoma
# SK-MEL-28 melanoma = test system: SK-MEL-28 melanoma
# T-47D breast = test system: T-47D breast
# MOLT-4 leukemia = test system: MOLT-4 leukemia
# OVCAR-4 ovarian = test system: OVCAR-4 ovarian
# SK-OV-3 ovarian = test system: SK-OV-3 ovarian
# SF-539 CNS = test system: SF-539 CNS
# NCI-H226 lung = test system: NCI-H226 lung
# OVCAR-3 ovarian = test system: OVCAR-3 ovarian
# UACC-62 melanoma = test system: UACC-62 melanoma
structure (smiles),measurement,setting,value
COc1cccc(-c2cc(=O)c3ccccc3o2)c1N,GI50,RXF 393 renal,46.4 µM
same,TGI,RXF 393 renal,> 100 µM
same,GI50,TK-10 renal,> 100 µM
same,TGI,TK-10 renal,> 100 µM
same,GI50,786-0 renal,> 100 µM
same,TGI,786-0 renal,> 100 µM
same,GI50,SF-268 CNS,> 100 µM
same,TGI,SF-268 CNS,> 100 µM
same,GI50,HL-60(TB) leukemia,2.79 µM
same,TGI,HL-60(TB) leukemia,21.2 µM
same,GI50,SR leukemia,31.3 µM
same,TGI,SR leukemia,96.5 µM
same,GI50,SK-MEL-2 melanoma,27.3 µM
same,TGI,SK-MEL-2 melanoma,55.7 µM
same,GI50,COLO 205 colon,3.97 µM
same,TGI,COLO 205 colon,10.8 µM
same,GI50,IGROV1 ovarian,30.7 µM
same,TGI,IGROV1 ovarian,> 100 µM
same,GI50,ACHN renal,> 100 µM
same,TGI,ACHN renal,> 100 µM
same,GI50,SNB-19 CNS,> 100 µM
same,TGI,SNB-19 CNS,> 100 µM
same,GI50,NCI-H460 NSCLC,66.1 µM
same,TGI,NCI-H460 NSCLC,> 100 µM
same,GI50,SN12C renal,72.4 µM
same,TGI,SN12C renal,> 100 µM
same,GI50,SK-MEL-5 melanoma,10.8 µM
same,TGI,SK-MEL-5 melanoma,37.9 µM
same,GI50,HCT-15 colon,91.8 µM
same,TGI,HCT-15 colon,> 100 µM
same,GI50,KM12 colon,40.7 µM
same,TGI,KM12 colon,> 100 µM
same,GI50,HOP-92 NSCLC,56.1 µM
same,TGI,HOP-92 NSCLC,> 100 µM
same,GI50,MCF7 breast,88.1 µM
same,TGI,MCF7 breast,> 100 µM
same,GI50,HOP-62 NSCLC,33.1 µM
same,TGI,HOP-62 NSCLC,> 100 µM
same,GI50,OVCAR-5 ovarian,43.1 µM
same,TGI,OVCAR-5 ovarian,> 100 µM
same,GI50,SNB-75 CNS,41.1 µM
same,TGI,SNB-75 CNS,> 100 µM
same,GI50,A549 NSCLC,> 100 µM
same,TGI,A549 NSCLC,> 100 µM
same,GI50,CCRF-CEM leukemia,23.1 µM
same,TGI,CCRF-CEM leukemia,67.6 µM
same,GI50,MDA-MB-468 breast,0.278 µM
same,TGI,MDA-MB-468 breast,0.844 µM
same,GI50,EKVX NSCLC,37.1 µM
same,TGI,EKVX NSCLC,> 100 µM
same,GI50,HS 578T breast,47.7 µM
same,TGI,HS 578T breast,> 100 µM
same,GI50,NCI-H522 lung,30 µM
same,TGI,NCI-H522 lung,> 100 µM
same,GI50,HCC-2998 colon,13.8 µM
same,TGI,HCC-2998 colon,58 µM
same,GI50,PC-3 prostate,> 100 µM
same,TGI,PC-3 prostate,> 100 µM
same,GI50,SF-295 CNS,> 100 µM
same,TGI,SF-295 CNS,> 100 µM
same,GI50,HT29 colon,13.2 µM
same,TGI,HT29 colon,> 100 µM
same,GI50,A498 renal,49.7 µM
same,TGI,A498 renal,> 100 µM
same,GI50,DU-145 prostate,54.9 µM
same,TGI,DU-145 prostate,> 100 µM
same,GI50,MDA-MB-435 melanoma,10.4 µM
same,TGI,MDA-MB-435 melanoma,> 100 µM
same,GI50,CAKI-1 renal,> 100 µM
same,TGI,CAKI-1 renal,> 100 µM
same,GI50,M14 melanoma,3.91 µM
same,TGI,M14 melanoma,20 µM
same,GI50,MDA-MB-231 breast,40.4 µM
same,TGI,MDA-MB-231 breast,> 100 µM
same,GI50,NCI-H322M lung,> 100 µM
same,TGI,NCI-H322M lung,> 100 µM
same,GI50,MALME-3M melanoma,2.25 µM
same,TGI,MALME-3M melanoma,5.26 µM
same,GI50,OVCAR-8 ovarian,38 µM
same,TGI,OVCAR-8 ovarian,> 100 µM
same,GI50,NCI/ADR-RES ovarian,25.1 µM
same,TGI,NCI/ADR-RES ovarian,74.7 µM
same,GI50,RPMI-8226 leukemia,34.4 µM
same,TGI,RPMI-8226 leukemia,> 100 µM
same,GI50,NCI-H23 lung,23.9 µM
same,TGI,NCI-H23 lung,99.5 µM
same,GI50,U251 glioblastoma,97.2 µM
same,TGI,U251 glioblastoma,> 100 µM
same,GI50,BT-549 breast,77.3 µM
same,TGI,BT-549 breast,> 100 µM
same,GI50,SW-620 colon,18.8 µM
same,TGI,SW-620 colon,> 100 µM
same,GI50,UACC-257 melanoma,5.54 µM
same,TGI,UACC-257 melanoma,37.2 µM
same,GI50,SK-MEL-28 melanoma,4.03 µM
same,TGI,SK-MEL-28 melanoma,9.78 µM
same,GI50,T-47D breast,59.3 µM
same,TGI,T-47D breast,> 100 µM
same,GI50,MOLT-4 leukemia,25.9 µM
same,TGI,MOLT-4 leukemia,66.5 µM
same,GI50,OVCAR-4 ovarian,28.1 µM
same,TGI,OVCAR-4 ovarian,> 100 µM
same,GI50,SK-OV-3 ovarian,79.7 µM
same,TGI,SK-OV-3 ovarian,> 100 µM
same,GI50,SF-539 CNS,> 100 µM
same,TGI,SF-539 CNS,> 100 µM
same,GI50,NCI-H226 lung,25 µM
same,TGI,NCI-H226 lung,70.2 µM
same,GI50,OVCAR-3 ovarian,65 µM
same,TGI,OVCAR-3 ovarian,> 100 µM
same,GI50,UACC-62 melanoma,4.95 µM
same,TGI,UACC-62 melanoma,28.9 µM
